Reference: patent US5691310A, “Methods of treatment using proANF peptides” (priority 1995, dated 1997)

Tests used:
[1] = test system: renal medullary Na+-K+-ATPase; test: inhibition of renal medullary Na+-K+-ATPase activity; format: biochemical; conditions: for inhibition of renal medullary Na+-K+-ATPase activity: 10^-11 M
porcine aorta = test: vasodilation of porcine aortic strips preconstricted with 0.3 micromolar phenylephrine; parameters: species or system pig; conditions: for increase in cyclic GMP levels over baseline levels: associated with vasodilation of porcine aorta; for vasodilation: porcine aorta
Protocol: 30 Kg pigs are sacrificed, and aortic strips are harvested. The strips are attached to F-60 transducer (Narco-BioSystems, Houston, Tex.) and attached to a physiography (Narco-BioSystems) while being submerged in a muscle tissue bath comprising a Krebs Ringer solution at 37° C., with 95% 02 -5% CO2, bubbled through the bath. Percentage vasodilation is measured versus time (as reported in FIG. 1) after preconstriction with 0.3 micromolar phenylephrine.

[2] = test system: particulate guanylate cyclase; test: cyclic GMP / particulate guanylate cyclase activation in cultured smooth muscle cells and porcine aorta; format: cell-based; conditions: cultured smooth muscle cells
Munich-Wistar rats = test: rat clearance model (diuresis and salt excretion); format: in vivo
Protocol: The same three peptides and ANF from Example I are tested using the rat clearance model. Six control rats and six experimental Munich-Wistar rats, each weighing 150-200 grams, are used for each peptide, with catheters being placed in both jugular veins and in the femoral artery. The ureters are cannulated for simultaneous urine collections with femoral artery blood collections.
After inserting the catheters, a stabilization of one hour is allowed. A 10 μg/kg bolus of each of the respective human sequences of the peptides is given via the jugular vein to six experimental rats followed by a sustaining infusion of 0.1 μg/kg/min for 60 minutes. Blood and urine samples are collected at 20 minute intervals during this 60 minute infusion. In both the control and experimental animals, hematocrits and plasma sodium values remained at the same levels pre- and post-infusion while blood pressure decreased with each of these peptides (see Attachment B).

[3] = test system: particulate guanylate cyclase; test: particulate guanylate cyclase activity in the kidney; format: biochemical; conditions: 1 μM; whole kidney homogenates, renal cortical and medullary membranes, isolated distal nephron
Protocol: Testing is also carried out to determine biologic effects of these peptides by measuring their effects on particulate guanylate activity in the kidney.

[4] = overcoming the negative ionotropic effect of Verapamil
healthy human subjects = test: infusion into healthy human subjects; format: in vivo; conditions: healthy humans; for urine volume / urine flow (in words): 100 ng/kg body wt per minute for 1 hour i.v.; for sodium excretion compared to baseline (in words): 100 ng/kg body wt per minute for 60 minutes; for systolic and diastolic blood pressures: 100 ng/kg/min i.v. for 60 minutes
Protocol: Infusion of these peptides into healthy human subjects was performed as follows: Human pro-ANF 1-30, pro-ANF 31-67, and pro-ANF 79-98, and hANF (i.e., pro-ANF […], were synthesized by Peninsula Laboratories (Belmont, Calif.). High pressure liquid chromatography (HPLC) analysis was performed on a sample of each of the four peptides to ensure purity. The peptides were dissolved in a sterile 0.9% saline solution to a concentration of 100 μg/ml and dispensed in 2 and 5 ml aliquots into sealed sterile vials. At the time of dispensing, randomly selected vials were tested for pyrogens and sterility. Prior to labeling the vials, the actual peptide content of the dispensed solution were determined by direct radioimmunoassay to account for any possible absorption of the respective peptides to the walls of the vials. All vials were then stored at -80° C. until thawed for individual study.
Normal healthy subjects were chosen on the basis of age (between 20 and 50 years), physical examination and biochemical screenings. The subjects consumed their normal diets prior to testing. The subjects fasted overnight and were tested in the morning in the seated position. Intravenous catheters were placed bilaterally for the administration of pro-hANF 1-30, pro-hANF 31-67, pro-hANF 79-98 and hANF [pro-hANF 99-126] and for blood sampling. After completion of a 45-minute equilibration period, there were three 60-minute phases of the study: baseline, experimental infusion (60 minutes) and recovery (3 hours). The baseline phase consisted of two 30 minute urine collection periods, the experimental phase consisted of three 20 minute urine and plasma collection periods, and the recovery phase consisted of two 30 minute urine and plasma collection periods each hour for three hours post-infusion. Urine output was replaced on a milliliter per milliliter basis throughout the study by administering oral water or orange juice. Urine samples were obtained by voiding at the designated collection periods.
The 36 subjects were divided into 6 groups. One group (i.e., the control group) received a placebo infusion of 0.9% sodium chloride during the experimental infusion phase. […] The four remaining groups of six subjects each received human pro-hANF 1-30, pro-hANF 31-67, pro-hANF 79-98 and hANF. The four groups received the peptides by continuous infusion at the rate of 0.1 μg/kg per minute. The volume administered per hour during the experimental infusion phase was 10 ml for all four peptides and the placebo. All infusions were given by a constant-rate infusion pump, with the final concentrations of prohANFs adjusted for the subjects' body weight. The subjects heart rate and cuff blood pressure were taken at 5 minute intervals throughout the study. The excreted urine was analyzed for sodium concentration.

[5] = test system: human subjects with class II New York Heart Association congestive heart failure; test: infusion into human subjects with congestive heart failure; format: in vivo; conditions: for diuretic properties (in words): congestive heart failure patients; for urine output increase at the end of the 60 minute infusion: congestive heart failure, 0.1 μg/kg body wt/minute; for increase of sodium excretion: human subjects with congestive heart failure
Protocol: Human proANF's 1-30, 31-67, 79-98, and 99-126 (i.e., ANF) were infused into human subjects with class II New York Heart Association congestive heart failure. An identical protocol to that used in example V where these peptides were infused into healthy human subjects was utilized. (See Attachment C for a detailed description of this protocol). The human subjects with congestive heart failure received an identical dose (0.1 μg/kg body wt/minute for 60 minutes) that the healthy human subjects received.

[6] = target: particulate guanylate cyclase of porcine aorta and cultured smooth muscle cells (porcine (aorta); not stated for the cultured smooth muscle cells)
[7] = test system: rat or other vertebrate species; test: biologic effects of peptides of the rat ANF prohormone; format: in vivo; conditions: peptides of the rat sequence, in the rat or other vertebrate species
Source text: At first it was thought that only the C-terminus (i.e., ANF) of ANF prohormone circulated. Before any portion of the rest of the prohormone was known to circulate Dr. Frossman patented the whole rat prohormone which he called Cardiodilatin and portion(s) thereof (U.S. Pat. No. 4,751,284). In this patent Dr. Frossman patented the rat sequence of the ANF prohormone. In his patent he stated that parts of the whole prohormone had activity if the C-terminal end (i.e., ANF) was attached to it. In publications he has stated that the rest of the rat prohormone only has activity if the C-terminus (i.e., ANF with its intact ring structure) of the rat prohormone is attached to it (Frossman W.G., Contr. Nephrol. 50:1-13, 1986) (see Attachment A). Dr. Frossman has never published that other peptide(s) originating from the rat ANF prohormone that he patented have any biologic activity by themselves. Dr. Frossman has further stated on page 11 of Attachment A "I think that the 28 a.a. […] It has been over 10 years since Frossmann submitted his patent and he has never published that any portion of cardiodilatin (i.e., rat ANF prohormone) has any biologic activity if the respective portion is not attached to the ANF portion of cardiodilatin.

[8] = period A, control period (before peptide)
[9] = period B, 1st 60min experimental period, 10 μg/kg bolus then 0.1 μg/kg/min
[10] = period C, 2nd 60min experimental period

Question: With `COc1ccc2cc([C@H](C)C(=O)O)ccc2c1` [Naproxen, reference compound] as the molecule, how does the “effect on the peptides' inhibition of renal medullary Na+-K+-ATPase” value ([1]; 0.5 mM) read?
Answer: completely blocked each of these peptides'effects on renal medullary Na+-K+-ATPase

Question: Which results are given for “H-NPMYNAVSNADLMDFKNLLDHLEEKMPLED-OH [proANF 1-30, H-Asn-Pro-Met-Tyr-Asn-Ala-Val-Ser-Asn-Ala-Asp-Leu-Met-Asp-Phe-Lys-Asn-Leu- Leu-Asp-His-Leu-Glu-Glu-Lys-Met-Pro-Leu-Glu-Asp-OH]”?
Answer: increase in cyclic GMP levels over baseline levels (porcine aorta): four-to-five; vasodilation (porcine aorta): cause vasodilation; cyclic GMP levels [2]: increase cyclic GMP levels; UNa V, urinary sodium excretion rate (Munich-Wistar rats; [8]): 36.37 ± 8.09 μeq-min^-1 -g kidney wt^-1; UNa V, urinary sodium excretion rate (Munich-Wistar rats; [9]): 224.30 ± 60.34 μeq-min^-1 -g kidney wt^-1; UNa V, urinary sodium excretion rate (Munich-Wistar rats; [10]): 384.98 ± 124.39 μeq-min^-1 -g kidney wt^-1; particulate guanylate cyclase activity [3]: enhance particulate guanylate cyclase; negative ionotropic (slowing heartbeat) effect of Verapamil [4]: can overcome the negative ionotropic (slowing heartbeat) effect; increase of urine flow (healthy human subjects): 4-12 fold; urine volume / urine flow (in words) (healthy human subjects): increase in urine volume; sodium excretion compared to baseline (in words) (healthy human subjects): significantly (P<0.05) increased sodium excretion; systolic and diastolic blood pressures (healthy human subjects): decreasing systolic and diastolic blood pressures; diuretic properties (in words) [5]: stronger diuretic properties than ANF; urine output increase at the end of the 60 minute infusion [5]: 3- to 6 fold; increase of sodium excretion [5]: three-to-eight; inhibition of renal medullary Na+-K+-ATPase activity [1]: Inhibition of renal medullary Na+-K+-ATPase activity

Question: With “H-SSDRSALLKSKLRALLTAPR-OH [proANF 79-98, H-Ser-Ser-Asp-Arg-Ser-Ala-Leu-Leu-Lys-Ser-Lys-Leu-Arg-Ala-Leu-Leu-Thr-Ala- Pro-Arg-OH]” as the molecule, how does the “increase in cyclic GMP levels over baseline levels” value (porcine aorta) read?
Answer: four-to-five

Question: And the vasodilation (porcine aorta)?
Answer: cause vasodilation

Question: What about the “cyclic GMP levels” value [2] of the same molecule?
Answer: increase cyclic GMP levels

Question: What about the “UNa V, urinary sodium excretion rate” value (Munich-Wistar rats; [8]) of the same molecule?
Answer: 90.88 ± 77.76 μeq-min^-1 -g kidney wt^-1

Question: What about the “UNa V, urinary sodium excretion rate” value (Munich-Wistar rats; [9]) of the same molecule?
Answer: 363.98 ± 261.85 μeq-min^-1 -g kidney wt^-1

Question: And the “UNa V, urinary sodium excretion rate” value (Munich-Wistar rats; [10])?
Answer: 564.22 ± 315.48 μeq-min^-1 -g kidney wt^-1

Question: And the “particulate guanylate cyclase activity” value [3]?
Answer: enhance particulate guanylate cyclase

Question: And the “negative ionotropic (slowing heartbeat) effect of Verapamil” value [4]?
Answer: can overcome the negative ionotropic (slowing heartbeat) effect

Question: And the “increase of urine flow” value (healthy human subjects)?
Answer: 4-12 fold

Question: What about the “urine volume / urine flow (in words)” value (healthy human subjects) of the same molecule?
Answer: increase in urine volume

Question: What about the “sodium excretion compared to baseline (in words)” value (healthy human subjects) of the same molecule?
Answer: each of these respective peptides except proANF 79-98 significantly (P<0.05) increased sodium excretion

Question: What about the “systolic and diastolic blood pressures” value (healthy human subjects) of the same molecule?
Answer: decreasing systolic and diastolic blood pressures

Question: And the “diuretic properties (in words)” value [5]?
Answer: stronger diuretic properties than ANF

Question: And the “urine output increase at the end of the 60 minute infusion” value [5]?
Answer: 3- to 6 fold

Question: What about the “increase of sodium excretion” value [5] of the same molecule?
Answer: no significant increase in sodium excretion

Question: And the “inhibition of renal medullary Na+-K+-ATPase activity” value [1]?
Answer: Inhibition of renal medullary Na+-K+-ATPase activity

Question: With “angiotensin II [comparison peptide in the Na+-K+-ATPase test, reference compound]” as the molecule, how does the “inhibition of renal medullary Na+-K+-ATPase activity” value [1] read?
Answer: Inhibition of renal medullary Na+-K+-ATPase activity

Question: With “human atrial natriuretic factor (ANF) (from UniProt P01160) (peptide)” as the molecule, how does the half maximal activation (ED50) of guanylate cyclase activity [6] read?
Answer: 10 nM

Question: Which “biologic effect(s) (blood pressure lowering, sodium excretion or diuretic effects)” value [7] does the source give for “rat proANF 1-30: peptide consisting of amino acids 1-30 from the rat ANF prohormone (NPVYSAVSNTDLMDFKNLLDHLEEKMPVED; UniProt P01161 25-54, looked up, fragment)” here?
Answer: no biologic effect(s)

Question: For “rat proANF 31-67: peptide consisting of amino acids 31-67 from the rat ANF prohormone (EVMPPQALSEQTDEAGAALSSLSEVPPWTGEVNPSQR; UniProt P01161 55-91, looked up, fragment)”, which “biologic effect(s) (blood pressure lowering, sodium excretion or diuretic effects)” value [7] is on record?
Answer: no biologic effect(s)

Question: For “rat proANF 79-98: peptide consisting of amino acids 79-98 from the rat ANF prohormone (PSDRSALLKSKLRALLAGPR; UniProt P01161 103-122, looked up, fragment)”, which “biologic effect(s) (blood pressure lowering, sodium excretion or diuretic effects)” value [7] is on record?
Answer: no biologic effect(s)

B1: human pro-ANF (79-98) (peptide)
peptide: H-SSDRSALLKSKLRALLTAPR-OH
Question: For B1, which half maximal activation (ED50) of guanylate cyclase activity [6] is on record?
Answer: 10 nM
